These results are taken from ChEMBL document CHEMBL3779847, “Altered activity profile of a tertiary silanol analog of multi-targeting nuclear receptor modulator T0901317” (Bioorg Med Chem Lett, 2016).

Series [1] has as its target T1, Nuclear receptor ROR-beta (Homo sapiens, UniProt Q92753).
T1 sequence (Q92753 whole entry): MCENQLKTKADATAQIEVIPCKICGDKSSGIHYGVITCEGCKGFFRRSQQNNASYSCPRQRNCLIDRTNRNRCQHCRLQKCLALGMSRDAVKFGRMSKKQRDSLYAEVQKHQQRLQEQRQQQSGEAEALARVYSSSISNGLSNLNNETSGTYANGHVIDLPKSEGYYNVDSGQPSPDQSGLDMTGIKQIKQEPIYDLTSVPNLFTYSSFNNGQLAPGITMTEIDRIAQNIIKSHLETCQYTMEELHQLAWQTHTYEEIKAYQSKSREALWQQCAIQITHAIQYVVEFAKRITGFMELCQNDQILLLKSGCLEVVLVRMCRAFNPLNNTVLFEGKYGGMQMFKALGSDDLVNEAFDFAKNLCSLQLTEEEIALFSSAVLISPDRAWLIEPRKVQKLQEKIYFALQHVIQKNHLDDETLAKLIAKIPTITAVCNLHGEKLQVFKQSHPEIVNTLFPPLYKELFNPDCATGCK
Nature of the series: Inverse agonist activity at human RORbeta transfected in HEK293 cells after 24 hrs by beta galactosidase luciferase reporter gene assay. The series is classed as cell-based.

Series [2] is described as follows: Octanol-water partition coefficient, log P of the compound by HPLC method. The series is classed as physicochemical.
Series [3] addresses T2, Nuclear receptor ROR-alpha (Homo sapiens, UniProt P35398).
T2 sequence (P35398 whole entry): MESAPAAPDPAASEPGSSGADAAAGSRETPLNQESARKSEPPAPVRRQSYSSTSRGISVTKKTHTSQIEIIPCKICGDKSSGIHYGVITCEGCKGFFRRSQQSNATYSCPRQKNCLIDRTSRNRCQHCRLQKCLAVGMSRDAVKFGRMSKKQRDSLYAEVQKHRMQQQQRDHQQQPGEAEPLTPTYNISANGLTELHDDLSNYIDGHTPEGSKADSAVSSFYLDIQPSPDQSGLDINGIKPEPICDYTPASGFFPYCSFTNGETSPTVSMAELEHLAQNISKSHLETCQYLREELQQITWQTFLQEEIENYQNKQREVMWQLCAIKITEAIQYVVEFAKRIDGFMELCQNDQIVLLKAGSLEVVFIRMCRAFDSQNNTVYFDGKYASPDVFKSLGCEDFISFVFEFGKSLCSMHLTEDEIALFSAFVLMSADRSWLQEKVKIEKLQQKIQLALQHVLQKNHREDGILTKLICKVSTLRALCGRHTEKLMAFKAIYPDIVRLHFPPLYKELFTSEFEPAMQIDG
Nature of the series: Inverse agonist activity at human RORalpha transfected in HEK293 cells after 24 hrs by beta galactosidase luciferase reporter gene assay. The series is classed as cell-based.

Another series deals with T3, PXR (NR1I2) (Homo sapiens, UniProt O75469).
T3 sequence (O75469 whole entry): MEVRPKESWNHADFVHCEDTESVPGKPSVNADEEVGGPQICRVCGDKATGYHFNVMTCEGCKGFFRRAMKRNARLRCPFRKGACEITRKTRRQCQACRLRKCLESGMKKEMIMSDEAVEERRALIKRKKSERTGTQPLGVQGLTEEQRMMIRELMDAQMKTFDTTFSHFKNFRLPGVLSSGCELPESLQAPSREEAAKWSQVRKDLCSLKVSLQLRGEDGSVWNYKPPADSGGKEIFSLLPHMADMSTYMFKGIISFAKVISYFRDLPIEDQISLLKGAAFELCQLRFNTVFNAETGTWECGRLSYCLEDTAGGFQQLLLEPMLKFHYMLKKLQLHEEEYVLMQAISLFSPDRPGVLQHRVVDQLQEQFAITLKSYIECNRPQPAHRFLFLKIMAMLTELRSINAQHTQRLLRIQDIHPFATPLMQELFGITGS
Nature of the series: Agonist activity at human PXR transfected in HEK293 cells after 24 hrs by luciferase reporter gene assay relative to T0901317. The series is classed as cell-based. Particulars: HEK293 cells transfected with human PXR, read-out: Efficacy; call rule not given here.

The target of series [4] is T4, Bile acid receptor (Homo sapiens, UniProt Q96RI1).
T4 sequence (Q96RI1 whole entry): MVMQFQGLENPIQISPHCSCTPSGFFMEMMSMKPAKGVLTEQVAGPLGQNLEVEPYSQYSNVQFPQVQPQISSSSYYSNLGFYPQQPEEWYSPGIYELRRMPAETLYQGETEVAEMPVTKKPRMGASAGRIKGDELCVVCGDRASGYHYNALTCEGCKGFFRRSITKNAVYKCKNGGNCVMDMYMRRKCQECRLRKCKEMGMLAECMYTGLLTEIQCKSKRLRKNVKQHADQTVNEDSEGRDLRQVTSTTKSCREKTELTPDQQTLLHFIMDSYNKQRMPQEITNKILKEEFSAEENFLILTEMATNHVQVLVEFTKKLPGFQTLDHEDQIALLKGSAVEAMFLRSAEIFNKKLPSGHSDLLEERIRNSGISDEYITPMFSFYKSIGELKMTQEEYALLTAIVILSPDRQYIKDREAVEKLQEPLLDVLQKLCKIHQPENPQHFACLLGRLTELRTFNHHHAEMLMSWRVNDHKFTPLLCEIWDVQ
Nature of the series: Partial agonist activity at human FXR transfected in HEK293 cells after 24 hrs by luciferase reporter gene assay. The series is classed as cell-based.

In series [5] the target is T5, Oxysterols receptor LXR-alpha (Homo sapiens, UniProt Q13133).
T5 sequence (Q13133 whole entry): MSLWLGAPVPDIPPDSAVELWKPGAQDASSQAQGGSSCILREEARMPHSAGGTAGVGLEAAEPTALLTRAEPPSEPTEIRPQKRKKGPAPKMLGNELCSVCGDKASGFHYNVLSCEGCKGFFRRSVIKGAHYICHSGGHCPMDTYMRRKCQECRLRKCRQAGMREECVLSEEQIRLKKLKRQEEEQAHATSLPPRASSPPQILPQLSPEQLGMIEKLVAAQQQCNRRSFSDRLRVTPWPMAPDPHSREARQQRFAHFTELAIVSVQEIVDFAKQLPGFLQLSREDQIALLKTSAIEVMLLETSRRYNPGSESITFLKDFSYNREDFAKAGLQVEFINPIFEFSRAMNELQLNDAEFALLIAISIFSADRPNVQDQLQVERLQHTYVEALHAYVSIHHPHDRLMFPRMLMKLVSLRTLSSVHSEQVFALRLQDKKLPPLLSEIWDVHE
Description: Agonist activity at human LXRalpha transfected in HEK293 cells after 24 hrs by luciferase reporter gene assay. The series is classed as cell-based.

For series [6], the target named is T6, Bile acid receptor (Homo sapiens) (UniProt Q96RI1).
T6 sequence (whole entry): T4 sequence (Q96RI1 whole entry)
Nature of the series: Partial agonist activity at human FXR transfected in HEK293 cells after 24 hrs by luciferase reporter gene assay relative to T0901317. In kind it is cell-based.

Series [7] concerns the target T7, Nuclear receptor ROR-gamma (Homo sapiens, UniProt P51449).
T7 sequence (P51449 whole entry): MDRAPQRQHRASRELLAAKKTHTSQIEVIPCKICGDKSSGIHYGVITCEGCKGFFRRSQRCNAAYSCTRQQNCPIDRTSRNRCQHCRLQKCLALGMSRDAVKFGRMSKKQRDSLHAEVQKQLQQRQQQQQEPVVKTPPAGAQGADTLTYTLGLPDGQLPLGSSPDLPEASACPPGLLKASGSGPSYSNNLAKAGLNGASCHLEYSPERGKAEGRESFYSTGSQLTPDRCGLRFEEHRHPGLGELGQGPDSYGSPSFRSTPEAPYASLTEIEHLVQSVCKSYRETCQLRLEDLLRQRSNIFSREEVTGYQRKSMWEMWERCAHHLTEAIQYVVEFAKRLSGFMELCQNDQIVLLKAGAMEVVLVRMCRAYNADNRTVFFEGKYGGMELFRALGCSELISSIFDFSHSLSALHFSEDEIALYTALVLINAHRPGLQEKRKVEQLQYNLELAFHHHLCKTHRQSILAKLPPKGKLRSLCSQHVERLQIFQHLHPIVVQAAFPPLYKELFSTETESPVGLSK
Nature of the series: Inverse agonist activity at human RORgamma transfected in HEK293 cells after 24 hrs by beta galactosidase luciferase reporter gene assay. In kind it is cell-based.

Series [8] deals with T8, Nuclear receptor subfamily 1 group I member 2 (Homo sapiens, UniProt O75469).
T8 sequence (O75469 whole entry): T3 sequence (O75469 whole entry)
Description: Agonist activity at human PXR transfected in HEK293 cells after 24 hrs by luciferase reporter gene assay. In kind it is cell-based.

For series [9], the target named is T9, Oxysterols receptor LXR-beta (Homo sapiens, UniProt P55055).
T9 sequence (P55055 whole entry): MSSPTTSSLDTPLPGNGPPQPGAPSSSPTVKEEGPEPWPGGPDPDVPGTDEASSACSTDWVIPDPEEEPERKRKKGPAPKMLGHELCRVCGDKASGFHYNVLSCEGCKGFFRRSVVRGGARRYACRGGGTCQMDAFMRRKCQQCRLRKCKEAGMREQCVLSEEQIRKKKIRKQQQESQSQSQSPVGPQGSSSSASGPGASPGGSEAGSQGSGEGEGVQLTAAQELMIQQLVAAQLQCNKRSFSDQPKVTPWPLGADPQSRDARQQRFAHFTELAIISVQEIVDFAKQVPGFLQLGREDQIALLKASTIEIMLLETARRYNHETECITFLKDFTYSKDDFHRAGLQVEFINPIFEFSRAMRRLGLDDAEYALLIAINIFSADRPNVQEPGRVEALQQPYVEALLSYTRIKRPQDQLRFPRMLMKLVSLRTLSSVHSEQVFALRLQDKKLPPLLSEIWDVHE
Description: Agonist activity at human LXRbeta transfected in HEK293 cells after 24 hrs by luciferase reporter gene assay. The series is classed as cell-based.

The target of series [10] is T4, Bile acid receptor. Description: Agonist activity at human FXR transfected in HEK293 cells after 24 hrs by luciferase reporter gene assay. The series is classed as cell-based.

Take `O=S(=O)(c1ccccc1)N(CC(F)(F)F)c1ccc(C(O)(C(F)(F)F)C(F)(F)F)cc1` [T091317]: the IC50 entry in [1] (hek293) and in [3] (hek293) was “Not Active” each time. The same compound yielded a logP in series [2] of 5.38.

With `CO[C@H]1/C=C/O[C@@]2(C)Oc3c(C)c(O)c4c(O)c(c(/C=N/N5CCN(C)CC5)c(O)c4c3C2=O)NC(=O)/C(C)=C\C=C\[C@H](C)[C@H](O)[C@@H](C)[C@@H](O)[C@@H](C)[C@H](OC(C)=O)[C@@H]1C` [RIFAMPIN], the Emax at 24 h at PXR (NR1I2) was 75%.

As for `C[Si](C)(O)c1ccc(N(CC(F)(F)F)S(=O)(=O)c2ccccc2)cc1`, the 50% effective concentration (EC50) was 11 µM at Bile acid receptor [4], “Not Active” in series [5], 0.88 µM in series [8] (read-out: EC50) and “Not Active” in series [9]. Besides, the IC50 amounted to 60 µM in series [1] (read-out: IC50), 43 µM in series [7] (read-out: IC50) and 53 µM in series [3] (read-out: IC50). The compound further had a log partition coefficient (logP) in series [2] of 4.23. Moreover, on PXR (NR1I2), the Emax at 24 h was determined as 61%. The compound also had an Efficacy in [6] of 23%.

Take `CC(C)(O)c1ccc(N(CC(F)(F)F)S(=O)(=O)c2ccccc2)cc1`: the 50% effective concentration (EC50) result (on Bile acid receptor [10]; in series [5]; in series [8] (hek293); in [9]) was “Not Active” in each case. Moreover, the IC50 result in series [1] (hek293), in series [7] (hek293) and in [3] (hek293) was “Not Active” throughout. Also, the lipophilicity (logP) in series [2] came to 3.7.
